Results published in publication PMC8429728, “TNK1 is a ubiquitin-binding and 14-3-3-regulated kinase that can be targeted to block tumor growth” (Nature Communications, 2021).
Read-outs that look alike come from different tables or passages of the source.

How the values were obtained:
Test in all cases: biochemical
Design in all cases: Reaction Biology 371-kinase panel at Km ATP, per cent enzyme activity relative to DMSO, single dose in duplicate
[1] = target: MSK1/RPS6KA5 (Homo sapiens, UniProt O75582); conditions: duplicate measurements, Km ATP
Outline: (§1)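 In vitro selectivity panel: 371 kinases, inhibitor at 300 nM; % activity vs DMSO; IC50 by variable-slope sigmoidal fit, bottom = 0.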

[2] = target: GSK3b (Homo sapiens, UniProt P49841); conditions: duplicate measurements, Km ATP
Outline: as §1

[3] = target: JAK1 (Homo sapiens, UniProt P23458); conditions: duplicate measurements, Km ATP
Outline: as §1

[4] = target: SRMS (Homo sapiens, UniProt Q9H3Y6); conditions: duplicate measurements, Km ATP
Outline: as §1

[5] = target: GRK4 (Homo sapiens, UniProt P32298); conditions: duplicate measurements, Km ATP
Outline: as §1

[6] = target: MAPKAPK3 (Homo sapiens, UniProt Q16644); conditions: duplicate measurements, Km ATP
Outline: as §1

[7] = target: c-Kit (Homo sapiens, UniProt P10721); conditions: duplicate measurements, Km ATP
Outline: as §1

[8] = target: EPHB1 (Homo sapiens, UniProt P54762); conditions: duplicate measurements, Km ATP
Outline: as §1

[9] = target: DYRK3 (Homo sapiens, UniProt O43781); conditions: duplicate measurements, Km ATP
Outline: as §1

[10] = target: ARK5/NUAK1 (Homo sapiens, UniProt O60285); conditions: duplicate measurements, Km ATP; read-out: % Enzyme Activity (relative to DMSO controls) / TP-0005801 (0.3µM) / Data 1
Outline: as §1

[11] = target: TLK1 (Homo sapiens, UniProt Q9UKI8); conditions: duplicate measurements, Km ATP
Outline: as §1

[12] = target: T1, PKCb1 (Homo sapiens, UniProt P05771); conditions: duplicate measurements, Km ATP
T1 construct: gene PRKCB; isoform beta I
Outline: as §1

[13] = target: NEK1 (Homo sapiens, UniProt Q96PY6); conditions: duplicate measurements, Km ATP
Outline: as §1

[14] = target: TBK1 (Homo sapiens, UniProt Q9UHD2); conditions: duplicate measurements, Km ATP
Outline: as §1

[15] = target: CDK7/cyclin H (Homo sapiens, UniProt P50613); conditions: duplicate measurements, Km ATP
Outline: as §1

[16] = target: TGFBR2 (Homo sapiens, UniProt P37173); conditions: duplicate measurements, Km ATP
Outline: as §1

[17] = target: RET (Homo sapiens, UniProt P07949); conditions: duplicate measurements, Km ATP
Outline: as §1

[18] = target: LIMK1 (Homo sapiens, UniProt P53667); conditions: duplicate measurements, Km ATP; read-out: % Enzyme Activity (relative to DMSO controls) / TP-0005801 (0.3µM) / Data 1
Outline: as §1

[19] = target: PDGFRb (Homo sapiens, UniProt P09619); conditions: duplicate measurements, Km ATP
Outline: as §1

[20] = target: LCK (Homo sapiens, UniProt P06239); conditions: duplicate measurements, Km ATP
Outline: as §1

[21] = read-out: % Enzyme Activity (relative to DMSO controls) / TP-0005801 (0.3µM) / Data 1
[22] = read-out: % Enzyme Activity (relative to DMSO controls) / TP-0005801 (0.3µM) / Data 2

Sequence of RET (P07949 whole entry): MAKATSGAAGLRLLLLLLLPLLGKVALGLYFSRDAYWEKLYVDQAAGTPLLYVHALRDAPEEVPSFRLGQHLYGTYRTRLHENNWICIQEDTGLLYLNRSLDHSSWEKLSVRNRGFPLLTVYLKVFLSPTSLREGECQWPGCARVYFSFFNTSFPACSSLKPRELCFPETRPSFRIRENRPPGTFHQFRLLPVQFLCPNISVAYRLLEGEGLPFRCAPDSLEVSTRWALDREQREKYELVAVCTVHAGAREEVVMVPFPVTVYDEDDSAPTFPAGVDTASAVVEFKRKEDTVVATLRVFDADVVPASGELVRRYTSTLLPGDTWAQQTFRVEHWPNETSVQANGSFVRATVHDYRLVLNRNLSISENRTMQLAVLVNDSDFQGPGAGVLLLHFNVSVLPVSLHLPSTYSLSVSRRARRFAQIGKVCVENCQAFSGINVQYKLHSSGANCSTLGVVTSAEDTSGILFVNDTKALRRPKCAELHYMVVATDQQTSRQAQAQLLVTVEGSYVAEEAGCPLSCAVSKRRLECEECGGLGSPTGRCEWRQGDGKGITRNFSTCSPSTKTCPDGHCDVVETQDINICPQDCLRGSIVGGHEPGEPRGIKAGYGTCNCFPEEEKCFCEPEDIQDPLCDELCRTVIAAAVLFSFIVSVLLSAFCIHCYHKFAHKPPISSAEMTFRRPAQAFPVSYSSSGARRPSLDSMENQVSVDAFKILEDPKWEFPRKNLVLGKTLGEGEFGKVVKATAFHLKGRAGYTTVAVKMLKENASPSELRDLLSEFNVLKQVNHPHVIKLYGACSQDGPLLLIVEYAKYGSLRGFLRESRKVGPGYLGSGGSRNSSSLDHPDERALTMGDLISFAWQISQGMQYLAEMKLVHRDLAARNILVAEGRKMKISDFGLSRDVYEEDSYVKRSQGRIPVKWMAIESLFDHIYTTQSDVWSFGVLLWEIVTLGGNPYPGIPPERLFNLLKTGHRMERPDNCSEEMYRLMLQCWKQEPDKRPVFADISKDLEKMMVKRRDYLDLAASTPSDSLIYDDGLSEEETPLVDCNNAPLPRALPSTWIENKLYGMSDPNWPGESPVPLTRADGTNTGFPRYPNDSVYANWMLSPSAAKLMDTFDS
Sequence of TBK1 (Q9UHD2 whole entry): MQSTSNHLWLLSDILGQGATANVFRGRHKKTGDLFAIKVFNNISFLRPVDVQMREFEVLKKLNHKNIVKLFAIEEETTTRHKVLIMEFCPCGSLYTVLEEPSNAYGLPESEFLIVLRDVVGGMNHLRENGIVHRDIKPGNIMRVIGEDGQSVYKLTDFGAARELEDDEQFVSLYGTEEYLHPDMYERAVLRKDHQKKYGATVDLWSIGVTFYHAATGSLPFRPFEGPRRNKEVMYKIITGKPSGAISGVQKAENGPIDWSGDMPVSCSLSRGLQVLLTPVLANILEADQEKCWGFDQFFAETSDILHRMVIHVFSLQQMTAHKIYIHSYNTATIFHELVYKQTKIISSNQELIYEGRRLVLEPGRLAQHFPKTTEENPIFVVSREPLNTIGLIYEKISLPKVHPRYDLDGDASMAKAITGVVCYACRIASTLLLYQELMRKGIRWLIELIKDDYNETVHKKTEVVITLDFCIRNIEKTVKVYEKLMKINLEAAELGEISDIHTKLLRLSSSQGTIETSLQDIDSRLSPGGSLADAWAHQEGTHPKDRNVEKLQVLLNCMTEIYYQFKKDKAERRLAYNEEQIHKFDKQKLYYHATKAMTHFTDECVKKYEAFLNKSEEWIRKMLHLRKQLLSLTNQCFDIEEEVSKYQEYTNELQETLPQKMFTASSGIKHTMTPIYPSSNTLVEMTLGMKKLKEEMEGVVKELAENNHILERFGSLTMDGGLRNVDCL
Sequence of SRMS (Q9H3Y6 whole entry): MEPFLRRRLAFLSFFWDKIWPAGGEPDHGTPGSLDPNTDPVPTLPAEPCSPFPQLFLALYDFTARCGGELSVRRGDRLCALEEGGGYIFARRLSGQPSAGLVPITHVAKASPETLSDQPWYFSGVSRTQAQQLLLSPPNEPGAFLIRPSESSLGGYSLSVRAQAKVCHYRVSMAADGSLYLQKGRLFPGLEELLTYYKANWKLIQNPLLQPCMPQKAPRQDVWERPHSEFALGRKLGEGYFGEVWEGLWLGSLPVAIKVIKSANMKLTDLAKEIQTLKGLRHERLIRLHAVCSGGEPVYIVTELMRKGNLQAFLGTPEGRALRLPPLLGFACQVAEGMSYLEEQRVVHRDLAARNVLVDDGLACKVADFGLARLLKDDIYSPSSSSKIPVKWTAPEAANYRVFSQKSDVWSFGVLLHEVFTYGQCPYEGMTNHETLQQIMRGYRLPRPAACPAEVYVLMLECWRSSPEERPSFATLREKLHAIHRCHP
Sequence of TLK1 (Q9UKI8 whole entry): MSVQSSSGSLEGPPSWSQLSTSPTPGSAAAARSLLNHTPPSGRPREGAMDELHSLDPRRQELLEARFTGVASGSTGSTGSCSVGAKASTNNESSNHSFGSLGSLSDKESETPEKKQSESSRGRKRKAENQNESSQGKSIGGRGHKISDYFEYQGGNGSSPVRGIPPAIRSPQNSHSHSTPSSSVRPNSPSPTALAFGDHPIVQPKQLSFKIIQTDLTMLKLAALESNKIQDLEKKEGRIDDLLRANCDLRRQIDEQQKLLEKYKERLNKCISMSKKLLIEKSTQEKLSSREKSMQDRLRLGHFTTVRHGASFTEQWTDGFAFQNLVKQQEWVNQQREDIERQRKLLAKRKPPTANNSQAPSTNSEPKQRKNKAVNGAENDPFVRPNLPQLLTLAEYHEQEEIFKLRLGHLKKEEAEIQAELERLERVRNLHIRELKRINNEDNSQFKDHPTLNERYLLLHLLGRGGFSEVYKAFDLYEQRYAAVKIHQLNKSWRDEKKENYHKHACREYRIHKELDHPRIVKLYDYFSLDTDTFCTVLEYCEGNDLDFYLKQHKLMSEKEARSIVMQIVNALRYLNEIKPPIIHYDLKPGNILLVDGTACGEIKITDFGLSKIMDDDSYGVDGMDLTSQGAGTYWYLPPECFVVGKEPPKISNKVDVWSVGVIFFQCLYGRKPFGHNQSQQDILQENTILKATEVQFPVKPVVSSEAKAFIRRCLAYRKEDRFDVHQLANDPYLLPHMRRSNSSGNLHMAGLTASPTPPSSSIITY
Sequence of MSK1/RPS6KA5 (O75582 whole entry): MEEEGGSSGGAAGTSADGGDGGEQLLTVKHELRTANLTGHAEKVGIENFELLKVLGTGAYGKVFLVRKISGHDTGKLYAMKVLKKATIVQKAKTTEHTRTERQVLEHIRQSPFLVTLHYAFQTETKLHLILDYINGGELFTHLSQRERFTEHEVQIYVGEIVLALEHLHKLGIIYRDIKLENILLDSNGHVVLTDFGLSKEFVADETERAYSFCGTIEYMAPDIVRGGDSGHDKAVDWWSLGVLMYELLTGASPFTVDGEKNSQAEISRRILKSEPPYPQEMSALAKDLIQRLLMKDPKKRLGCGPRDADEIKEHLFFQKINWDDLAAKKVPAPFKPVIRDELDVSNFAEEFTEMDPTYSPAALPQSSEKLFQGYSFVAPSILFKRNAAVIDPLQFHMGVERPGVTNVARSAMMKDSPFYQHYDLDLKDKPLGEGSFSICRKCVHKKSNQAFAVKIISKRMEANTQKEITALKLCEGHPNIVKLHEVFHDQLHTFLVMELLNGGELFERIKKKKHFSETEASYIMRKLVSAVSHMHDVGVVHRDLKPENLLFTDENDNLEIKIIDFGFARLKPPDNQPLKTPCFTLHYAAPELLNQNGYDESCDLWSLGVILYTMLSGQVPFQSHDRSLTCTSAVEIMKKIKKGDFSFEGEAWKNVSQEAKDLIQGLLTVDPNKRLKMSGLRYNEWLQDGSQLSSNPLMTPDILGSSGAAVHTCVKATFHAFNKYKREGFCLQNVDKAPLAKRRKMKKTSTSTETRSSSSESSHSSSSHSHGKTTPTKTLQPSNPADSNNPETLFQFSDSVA
Sequence of MAPKAPK3 (Q16644 whole entry): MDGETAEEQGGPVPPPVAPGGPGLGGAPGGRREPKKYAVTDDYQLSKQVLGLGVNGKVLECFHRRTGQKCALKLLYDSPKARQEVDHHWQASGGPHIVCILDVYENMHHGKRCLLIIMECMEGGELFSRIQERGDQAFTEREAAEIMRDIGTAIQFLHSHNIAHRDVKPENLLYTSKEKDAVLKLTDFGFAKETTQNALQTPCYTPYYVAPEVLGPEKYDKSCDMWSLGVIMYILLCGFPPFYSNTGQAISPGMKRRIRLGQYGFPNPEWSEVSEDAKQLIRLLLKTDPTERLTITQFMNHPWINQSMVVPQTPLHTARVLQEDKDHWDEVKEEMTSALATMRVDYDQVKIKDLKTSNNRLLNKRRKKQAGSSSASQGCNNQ
Sequence of TGFBR2 (P37173 whole entry): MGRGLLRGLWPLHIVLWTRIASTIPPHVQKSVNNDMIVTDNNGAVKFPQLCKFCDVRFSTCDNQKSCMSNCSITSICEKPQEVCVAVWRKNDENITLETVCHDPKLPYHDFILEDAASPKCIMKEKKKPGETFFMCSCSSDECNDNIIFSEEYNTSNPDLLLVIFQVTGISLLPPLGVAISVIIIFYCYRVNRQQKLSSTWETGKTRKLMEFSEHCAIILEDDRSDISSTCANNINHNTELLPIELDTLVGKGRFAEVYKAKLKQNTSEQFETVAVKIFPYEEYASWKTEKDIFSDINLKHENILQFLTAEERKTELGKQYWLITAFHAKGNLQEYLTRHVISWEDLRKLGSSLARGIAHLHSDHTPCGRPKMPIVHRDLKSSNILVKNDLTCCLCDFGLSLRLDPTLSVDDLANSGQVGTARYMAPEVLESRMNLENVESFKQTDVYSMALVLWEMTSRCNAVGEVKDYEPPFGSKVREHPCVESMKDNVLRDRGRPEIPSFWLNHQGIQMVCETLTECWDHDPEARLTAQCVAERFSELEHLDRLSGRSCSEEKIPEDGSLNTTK

remaining activity at 0.3 µM [1, 21]: 127%
remaining activity at 0.3 µM [1, 22]: 123%
remaining activity at 0.3 µM [2, 21]: 96.4%
remaining activity at 0.3 µM [2, 22]: 95.7%
remaining activity at 0.3 µM [3, 21]: 104%
remaining activity at 0.3 µM [3, 22]: 102%
remaining activity at 0.3 µM [4, 21]: 89.9%
remaining activity at 0.3 µM [4, 22]: 89.5%
remaining activity at 0.3 µM [5, 21]: 109%
remaining activity at 0.3 µM [5, 22]: 108%
remaining activity at 0.3 µM [6, 21]: 104%
remaining activity at 0.3 µM [6, 22]: 103%
remaining activity at 0.3 µM [7, 21]: 85.3%
remaining activity at 0.3 µM [7, 22]: 85.1%
remaining activity at 0.3 µM [8, 21]: 90.7%
remaining activity at 0.3 µM [8, 22]: 89%
remaining activity at 0.3 µM [9, 21]: 126%
remaining activity at 0.3 µM [9, 22]: 124%
remaining activity at 0.3 µM [10]: 14.2%
remaining activity at 0.3 µM [11, 21]: 103%
remaining activity at 0.3 µM [11, 22]: 101%
remaining activity at 0.3 µM [12, 21]: 90.9%
remaining activity at 0.3 µM [12, 22]: 90.2%
remaining activity at 0.3 µM [13, 21]: 105%
remaining activity at 0.3 µM [13, 22]: 104%
remaining activity at 0.3 µM [14, 21]: 97.8%
remaining activity at 0.3 µM [14, 22]: 96.4%
remaining activity at 0.3 µM [15, 21]: 103%
remaining activity at 0.3 µM [15, 22]: 101%
remaining activity at 0.3 µM [16, 21]: 99.3%
remaining activity at 0.3 µM [16, 22]: 97.8%
remaining activity at 0.3 µM [17, 21]: 83.2%
remaining activity at 0.3 µM [17, 22]: 81.2%
remaining activity at 0.3 µM [18]: 104%
remaining activity at 0.3 µM [19, 21]: 64.4%
remaining activity at 0.3 µM [19, 22]: 64%
remaining activity at 0.3 µM [20, 21]: 101%
remaining activity at 0.3 µM [20, 22]: 99.4%
Structure (SMILES): COc1cc(N2CCN(C)CC2)c(C)cc1Nc1ncc(Br)c(Nc2cccnc2N(C)C)n1 [TP-5801]
